This test addresses T1, HGFR (Homo sapiens, UniProt P08581).
T1 construct: endogenous in cells; host or cells: MKN-45 human gastric cancer cells
The experiment in a line: Inhibitory activity against the HGFR autophosphorylation using ELISA (MKN-45 cells). It counts as cell-based. Conditions: 1 hr with test substance. On the procedure: Human gastric cancer cells (MKN-45) were suspended in a 1% FBS-containing RPMI1640 medium (purchased from Sigma). The cell suspension (1×10^5 cells/ml) was put in a 96-well plate for cell culture (purchased from NUNC, Production No. 167008) at 0.1 ml/well, and then cultured in a 5% CO2 incubator (37° C.) overnight. After the culture, from each well was removed the supernatant, followed by adding 0.05 ml of a 1% FBS-containing RPMI1640 medium. Then, the well was supplied with 0.05 ml of the test substance dissolved in dimethyl sulfoxide (diluted with a 1% FBS-containing RPMI1640 medium), followed by culturing in a 5% CO2 incubator (37° C.) for 1 hr. From each well was removed the supernatant, and each well was washed with 150 μl of PBS, followed by adding 100 μl of a lysis buffer (50 mM Hepes (pH 7.4), 150 mM NaCl, 10% (v/v) glycerol, 1% Triton X-100, 1.5 mM MgCl2, 1 mM EDTA (pH 8.0), 100 mM NaF, 1 mM PMSF, 10 μg/ml Aprotinin, 50 μg/ml Leupeptin, 1 μg/ml Pepstatin A and 1 mM Na3VO4). The plate was shaken at 4° C. for 1 hr to prepare the cell extract.
To a 96-well plate for ELISA (purchased from COSTAR, Production No. 3369) was added 50 μl of 60 mM bicarbonate buffer (pH 9.6) containing 50 μg/ml of an anti-phosphotyrosine antibody (PY20, purchased from Transduction Laboratory, Production No. P-11120). The plate was incubated at 4° C. overnight.
Each well of the plate prepared in 2. was washed three times with 200 μl of PBS, and supplied with 150 μl of 3% BSA/PBS, followed by incubating at room temperature for 2 hrs. Each well was washed three times with 200 μl of PBS, and supplied with 50 μl of the above cell extract, followed by incubating at 4° C. overnight. After the incubation, each well was washed three times with 250 μl of a washing solution (0.1% BSA, 20 mM Tris-HCl (pH 7.6), 137 mM NaCl, and 0.05% Tween-20), and supplied with 70 μl of anti-HGFR antibody (h-Met(C-12), purchased from Santa Cruz, Production No. sc-10) 2,000-fold diluted with a reaction solution (1% BSA, 20 mM Tris-HCl (pH 7.6), 137 mM NaCl and 0.05% Tween-20), followed by incubating at room temperature for 1 hr. The well was washed three times with 250 μl of the washing solution, and supplied with 70 μl of peroxidase-labelled anti-rabbit IgG antibody (purchased from Cell Signaling, Production No. 7074) 2,000-fold diluted with the reaction solution, followed by incubating at room temperature for 1 hr. Each well was washed three times with 250 μl of the washing solution, and supplied with 70 μl of TMB Membrane Peroxidase Substrate (purchased from Funakoshi, Production No. 50-5077-03), followed by incubating at room temperature for 10 min. Each well was supplied with 70 μl of 1 M phosphoric acid, and using the Plate Reader MTP-500 (Corona Electric), the absorbance of the well was instantly determined at a measurement wavelength of 450 nm. While defining the absorbance of a well supplied with the cell extract having no test substance as 100% HGFR autophosphorylation activity, and the absorbance of a well supplied with 50 μl of the lysis buffer as 0% HGFR autophosphorylation activity, the HGFR autophosphorylation activity (%) was calculated for each well.
T1 sequence (P08581 25-1390): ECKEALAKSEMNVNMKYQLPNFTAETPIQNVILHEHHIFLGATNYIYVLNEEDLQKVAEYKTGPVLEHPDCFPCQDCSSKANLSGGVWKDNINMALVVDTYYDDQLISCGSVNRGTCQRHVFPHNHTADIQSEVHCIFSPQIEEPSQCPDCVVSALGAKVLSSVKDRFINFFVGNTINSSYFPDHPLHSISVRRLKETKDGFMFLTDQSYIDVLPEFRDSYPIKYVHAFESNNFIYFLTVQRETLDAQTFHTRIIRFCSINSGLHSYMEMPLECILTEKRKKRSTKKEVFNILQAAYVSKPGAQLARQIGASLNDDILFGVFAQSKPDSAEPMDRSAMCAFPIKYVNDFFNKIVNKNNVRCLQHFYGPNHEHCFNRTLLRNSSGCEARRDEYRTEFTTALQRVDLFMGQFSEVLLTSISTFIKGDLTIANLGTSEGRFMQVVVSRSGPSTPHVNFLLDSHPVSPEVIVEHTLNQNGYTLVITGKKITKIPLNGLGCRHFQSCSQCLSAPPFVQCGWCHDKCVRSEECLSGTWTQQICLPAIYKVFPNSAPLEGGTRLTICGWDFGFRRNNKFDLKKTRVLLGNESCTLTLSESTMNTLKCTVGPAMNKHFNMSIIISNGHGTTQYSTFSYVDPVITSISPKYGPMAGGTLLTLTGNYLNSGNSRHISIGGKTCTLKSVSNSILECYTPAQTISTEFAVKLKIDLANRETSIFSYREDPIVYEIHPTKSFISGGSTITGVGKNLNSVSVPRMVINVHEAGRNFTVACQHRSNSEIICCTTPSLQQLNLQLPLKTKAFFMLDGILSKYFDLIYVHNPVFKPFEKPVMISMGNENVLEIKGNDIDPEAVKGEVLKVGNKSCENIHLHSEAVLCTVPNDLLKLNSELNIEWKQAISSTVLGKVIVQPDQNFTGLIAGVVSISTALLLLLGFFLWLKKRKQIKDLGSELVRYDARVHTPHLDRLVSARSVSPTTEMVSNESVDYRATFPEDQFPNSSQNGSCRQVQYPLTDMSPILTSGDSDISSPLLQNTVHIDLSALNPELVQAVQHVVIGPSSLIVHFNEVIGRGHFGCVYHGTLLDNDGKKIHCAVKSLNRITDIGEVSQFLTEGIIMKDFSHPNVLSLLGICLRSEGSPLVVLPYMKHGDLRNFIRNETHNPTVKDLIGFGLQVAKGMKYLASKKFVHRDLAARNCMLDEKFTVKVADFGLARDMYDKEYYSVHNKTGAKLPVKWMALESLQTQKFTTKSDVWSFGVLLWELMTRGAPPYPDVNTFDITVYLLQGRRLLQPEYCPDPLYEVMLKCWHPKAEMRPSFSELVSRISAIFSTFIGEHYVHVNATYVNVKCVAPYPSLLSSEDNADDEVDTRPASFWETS
As usually defined, the IC50 is the concentration needed to halve the response being measured. Compound `O=C(Nc1cc(Oc2ccc(NC(=O)C3(C(=O)Nc4ccc(F)cc4)CC3)cc2F)ccn1)N1CCC(N2CCCC2)CC1` [Example 10, N-(4-Fluorophenyl)-N′-{3-fluoro-4-[(2-{[(4-pyrrolidin-1-ylpiperidin-1-yl)carbonyl]amino}pyridin-4-yl)oxy]phenyl}cyclopropane-1,1-dicarboxamide] returned an IC50 of 21 nM.

In turn, `O=C(Nc1cc(Oc2ccc(NC(=O)C3(C(=O)Nc4ccc(F)cc4)CC3)cc2F)ccn1)N1CCC(N2CCC2)CC1` [Example 11, N-{4-[(2-{[(4-Azetidin-1-ylpiperidin-1-yl)carbonyl]amino}pyridin-4-yl)oxy]-3-fluorophenyl}-N′-(4-fluorophenyl)cyclopropane-1,1-dicarboxamide] yielded an IC50 of 13 nM.

Turning to `CN(C)[C@@H]1CCN(C(=O)Nc2cc(Oc3ccc(NC(=O)C4(C(=O)Nc5ccc(F)cc5)CC4)cc3F)ccn2)C1` [Example 36, N-(4-{[2-({[(3R)-3-(Dimethylamino)pyrrolidin-1-yl]carbonyl}amino)pyridin-4-yl]oxy}-3-fluorophenyl)-N′-(4-fluorophenyl)cyclopropane-1,1-dicarboxamide], the half-inhibitory concentration (IC50) is 15 nM.

The compound `CN1CCN(C(=O)Nc2cc(Oc3cc(F)c(NC(=O)C4(C(=O)Nc5ccc(F)cc5)CC4)cc3F)ccn2)CC1` [Example 104, N-{2,5-Difluoro-4-[(2-{[(4-methylpiperazin-1-yl)carbonyl]amino}pyridin-4-yl]oxy}phenyl)-N′-(4-fluorophenyl)cyclopropane-1,1-dicarboxamide] yielded an IC50 of 15 nM.

Regarding `CN(C)CC1CN(C(=O)Nc2cc(Oc3ccc(NC(=O)C4(C(=O)Nc5ccc(F)cc5)CC4)c(F)c3)ccn2)C1` [Example 77, N-[4-({2-[({3-[(Dimethylamino)methyl]azetidin-1-yl}carbonyl)amino]pyridin-4-yl}oxy)-2-fluorophenyl]-N′-(4-fluorophenyl)cyclopropane-1,1-dicarboxamide], the IC50 was found to be 13 nM.

As to `CN1CCN(C(=O)Nc2cc(Oc3ccc(NC(=O)C4(C(=O)Nc5ccc(F)cc5)CC4)c(F)c3)ccn2)CC1` [Example 64, N-{2-Fluoro-4-[(2-{[(1-methylpiperazin-4-yl)carbonyl]amino}pyridin-4-yl)oxy]phenyl}-N′-(4-fluorophenyl)cyclopropane-1,1-dicarboxamide], the midpoint of inhibition, the IC50, lay at 20 nM.

`CN(C)CC1CN(C(=O)Nc2cc(Oc3ccc(NC(=O)C4(C(=O)Nc5ccc(F)cc5)CC4)c(F)c3F)ccn2)C1` [Example 107, N-[4-({2-[({3-[(Dimethylamino)methyl]azetidine-1-yl}carbonyl)amino]pyridin-4-yl}oxy)-2,3-difluorophenyl]-N′-(4-fluorophenyl)cyclopropane-1,1-dicarboxamide]: 36 nM corresponded to half-maximal inhibition (IC50).

As for `CN1CCN(C2CCN(C(=O)Nc3cc(Oc4ccc(NC(=O)C5(C(=O)Nc6ccc(F)cc6)CC5)cc4)ccn3)CC2)CC1` [Example 32, N-(4-Fluorophenyl)-N′-(4-{[2-({[4-(4-methylpiperazin-1-yl)piperidin-1-yl]carbonyl}amino)pyridin-4-yl]oxy}phenyl)cyclopropane-1,1-dicarboxamide], the IC50 is 15 nM.

In the case of `CN(C)[C@H]1CCN(C(=O)Nc2cc(Oc3ccc(NC(=O)C4(C(=O)Nc5ccc(F)cc5)CC4)cc3F)ccn2)C1` [Example 24, N-(4-{[2-({[(3S)-3-(Dimethylamino)pyrrolidin-1-yl]carbonyl}amino)pyridin-4-yl]oxy}-3-fluorophenyl)-N′-(4-fluorophenyl)cyclopropane-1,1-dicarboxamide], the IC50 came out at 27 nM.

Compound `CN(C)C1CN(C2CCN(C(=O)Nc3cc(Oc4ccc(NC(=O)C5(C(=O)Nc6ccccc6)CC5)c(F)c4)ccn3)CC2)C1` [Example 55] came in with an IC50 of 16 nM.

Compound `O=C(Nc1cc(Oc2ccc(NC(=O)C3(C(=O)Nc4ccc(F)cc4)CC3)c(F)c2)ccn1)N1CC(CO)C1` [Example 75] yielded an IC50 of 13 nM.

In turn, `O=C(Nc1cc(Oc2ccc(NC(=O)C3(C(=O)Nc4ccc(F)cc4)CC3)c(F)c2F)ccn1)N1CC(O)C1` [Example 106, N-[2,3-Difluoro-4-[(2-{[(3-hydroxyazetidin-1-yl)carbonyl]amino}pyridin-4-yl)oxy]phenyl}-N′-(4-fluorophenyl)cyclopropane-1,1-dicarboxamide] showed an IC50 of 39 nM.

`CN(C)[C@H]1CCN(C(=O)Nc2cc(Oc3ccc(NC(=O)C4(C(=O)Nc5ccc(F)cc5)CC4)cc3)ccn2)C1` [Example 41, N-(4-{[2-({[(3S)-3-(Dimethylamino)pyrrolidin-1-yl]carbonyl}amino)pyridin-4-yl]oxy}phenyl)-N′-(4-fluorophenyl)cyclopropane-1,1-dicarboxamide] yielded an IC50 of 16 nM.

In the case of `CN1CCC(N(C)C(=O)Nc2cc(Oc3ccc(NC(=O)C4(C(=O)Nc5ccc(F)cc5)CC4)cc3F)ccn2)CC1` [Example 1, N-(3-Fluoro-4-{[2-({[methyl(1-methylpiperidin-4-yl)amino]carbonyl}amino)pyridin-4-yl]oxy}phenyl)-N′-(4-fluorophenyl)cyclopropane-1.1-dicarboxamide], the IC50 was found to be 18 nM.

The compound `CN1CCC(N2CCN(C(=O)Nc3cc(Oc4ccc(NC(=O)C5(C(=O)Nc6ccc(F)cc6)CC5)cc4F)ccn3)CC2)CC1` [Example 19, N-(3-Fluoro-4-{[2-({[4-(1-methylpiperidin-4-yl)piperazin-1-yl]carbonyl}amino)pyridin-4-yl]oxy}phenyl)-N′-(4-fluorophenyl)cyclopropane-1,1-dicarboxamide] returned an IC50 of 23 nM.

In the case of `O=C(Nc1cc(Oc2ccc(NC(=O)C3(C(=O)Nc4ccc(F)cc4)CC3)cc2F)ccn1)N1CCOCC1` [Example 67, N-[3-Fluoro-4-({2-[(morpholin-4-ylcarbonyl)amino]pyridin-4-yl}oxy)phenyl]-N′-(4-fluorophenyl)-cyclopropane-1,1-dicarboxamide], half-maximal inhibition (IC50) was put at 10 nM.

`CCN(CC)CCCN(C)C(=O)Nc1cc(Oc2ccc(NC(=O)C3(C(=O)Nc4ccc(F)cc4)CC3)cc2F)ccn1` [Example 44, N-(4-{[2-({[[3-(Diethylamino)propyl](methyl)amino]carbonyl}amino)pyridin-4-yl]oxy}-3-fluorophenyl)-N′-(4-fluorophenyl)cyclopropane-1,1-dicarboxamide]: half-maximal inhibition (IC50) required 80 nM.

Regarding `CN(C)[C@@H]1CCN(C(=O)Nc2cc(Oc3ccc(NC(=O)C4(C(=O)Nc5ccccc5)CC4)c(F)c3)ccn2)C1` [Example 59, N-(4-{[2-({[(3R)-3-(Dimethylamino)pyrrolidin-1-yl]carbonyl}amino)pyridin-4-yl]oxy}-2-fluorophenyl)-N′-phenylcyclopropane-1,1-dicarboxamide], the IC50 is 16 nM.

Compound `CN1CCC(N2CCN(C(=O)Nc3cc(Oc4ccc(NC(=O)C5(C(=O)Nc6ccc(F)cc6)CC5)cc4)ccn3)CC2)CC1` [Example 31, N-(4-Fluorophenyl)-N′-(4-{[2-({[4-(1-methylpiperidin-4-yl)piperazin-1-yl]carbonyl}amino)pyridin-4-yl]oxy}phenyl)cyclopropane-1,1-dicarboxamide] returned an IC50 of 30 nM.

`CN(C)C1CCN(C(=O)Nc2cc(Oc3cc(F)c(NC(=O)C4(C(=O)Nc5ccc(F)cc5)CC4)cc3F)ccn2)CC1` [Example 103, N-(4-{[2-({[4-(Dimethylamino)piperidin-1-yl]carbonyl}amino)pyridin-4-yl]oxy}-2,5-difluorophenyl)-N′-(4-fluorophenyl)cyclopropane-1,1-dicarboxamide] came in with an IC50 of 12 nM.

Compound `CN(C)[C@@H]1CCN(C(=O)Nc2cc(Oc3ccc(NC(=O)C4(C(=O)Nc5ccc(F)cc5)CC4)cc3)ccn2)C1` [Example 42, N-(4-{[2-({[(3R)-3-(Dimethylamino)pyrrolidin-1-yl]carbonyl}amino)pyridin-4-yl]oxy}phenyl)-N′-(4-fluorophenyl)cyclopropane-1,1-dicarboxamide] registered an IC50 of 42 nM.

Values taken from patent publication US7855290B2, “Pyridine derivatives and pyrimidine derivatives (3)” (Eisai R&D Management Co., Ltd., priority 2005, dated 2010).
